Results taken from patent publication US7709606B2, “Interacting polypeptide comprising a heptapeptide pattern and a cellular penetration domain” (Ecole Normale Superieure de Lyon, priority 2003, dated 2010).
Read-outs that look alike come from different tables or passages of the source.

Experiments:
[1] = system: HIV-1/Ba-L; assay: antiviral test in monocyte-derived macrophages (MDM), RT activity; assay type: cell-based; details: for anti-HIV activity, HIV-1/Ba-L replication: MDM, in words; for Percentage inhibition, Mean / ED70 / ED90 / EC50: MDMs, HIV-1/Ba-L; for EC50: Human immunodeficiency virus 1, BAL, Macrophage, read-out: ED50 (the source's name)
Description: (§1) These viruses were amplified in vitro with umbilical blood mononuclear cells (UBMC) activated with PHA-P. The cell-free supernatant was centrifuged at […] for 10 minutes to eliminate soluble factors, and the residue was re-suspended in cell culture medium. Virus stocks were titrated using PBMC cells activated with PHA-P and 50% tissue culture infectious doses (TCID50) were calculated using Kärber's formula.
The MDM cells were pre-treated for 30 minutes in 6 concentrations of different molecules and infected with 30000 TCID50 of the HIV-1/Ba-L strain. AZT (0.8, 4, 20, 100 and 500 nM) and indinavir (0.8, 4, 20, 100 and 500 nM) were used as the control. […] The molecules were maintained for 7 days post infection, and the cellular supernatant was harvested 7, 14 and 21 days post infection and stored at −20° C. to measure viral replication by reverse transcriptase activity (RT) assay.
(§2) HIV replication was analyzed by assaying the RT activity in the supernatants from cell cultures using the RetroSys RT kit (Innovagen). The experiments were carried out 3 times and the results are expressed as the mean of the RT activity±the standard deviation (SD).

[2] = system: HIV-1-LA1; assay: antiviral test in PHA-P activated PBMC, RT activity; assay type: cell-based; details: for anti-HIV activity, replication of HIV-1-LA1: PBMC activated by PHA-P, 7th day, in words; for Percentage inhibition, Mean: HIV-1 LA1, day 7
Description: as §1
PBMC cells were pre-treated for 30 minutes by 5 concentrations of each molecule and infected with 75 TCID50 of the HIV-1-LA1 strain. AZT (1.6, 8, 40, 200 and 1000 nM) and indinavir (1.6, 8, 40, 200 and 1000 nM) were used as the control. […] The molecules were maintained throughout culture, and the cellular supernatant was harvested 7 days post infection and stored at −20° C. to measure viral replication by reverse transcriptase activity (RT) assay.
as §2
In a last step, it was examined whether SHPs were actually capable of inhibiting HIV-1 replication. This was carried out in PBMCs activated by PHA-P and in MDMs. […] The effects of different SHPs was thus tested at this time. AZT and indinavir were used as controls.

Row | SMILES | anti-HIV activity, HIV-1/Ba-L replication [1] | Percentage inhibition, Mean ([1]; Day 7, dose 0.8 (nM)) [%] | Percentage inhibition, Mean ([1]; Day 7, dose 4 (nM)) [%] | Percentage inhibition, Mean ([1]; Day 7, dose 20 (nM)) [%] | Percentage inhibition, Mean ([1]; Day 7, dose 100 (nM)) [%] | Percentage inhibition, Mean ([1]; Day 7, dose 500 (nM)) [%] | ED70 ([1]; Day 14) [nM] | ED90 ([1]; Day 14) [nM] | Percentage inhibition, Mean ([1]; Day 14, dose 0.8 (nM)) [%] | Percentage inhibition, Mean ([1]; Day 14, dose 4 (nM)) [%] | Percentage inhibition, Mean ([1]; Day 14, dose 20 (nM)) [%] | Percentage inhibition, Mean ([1]; Day 14, dose 100 (nM)) [%] | Percentage inhibition, Mean ([1]; Day 14, dose 500 (nM)) [%] | Percentage inhibition, Mean ([1]; Day 21, dose 0.8 (nM)) [%] | Percentage inhibition, Mean ([1]; Day 21, dose 4 (nM)) [%] | Percentage inhibition, Mean ([1]; Day 21, dose 20 (nM)) [%] | Percentage inhibition, Mean ([1]; Day 21, dose 100 (nM)) [%] | Percentage inhibition, Mean ([1]; Day 21, dose 500 (nM)) [%] | anti-HIV activity, replication of HIV-1-LA1 [2] | ED70 ([2]; PBMCs, HIV-1-LA1, 7th day) [nM] | also measured
1 | Cc1cn([C@H]2C[C@H](N=[N+]=[N-])[C@@H](CO)O2)c(=O)[nH]c1=O [AZT, reference compound] | reduced in a dose-dependent manner | 76 | 72 | 87 | 88 | 93 | 9 | 64 | 0 | 55 | 82 | 92 | 100 | 0 | 0 | 68 | 81 | 100 | effectively inhibited | 13.5 | ED90 ([2]; PBMCs, HIV-1-LA1, 7th day): 19 nM; Percentage inhibition, Mean ([2]; PBMCs, Dose 1.6 (nM)): 0%; Percentage inhibition, Mean ([2]; PBMCs, Dose 8 (nM)): 81%; Percentage inhibition, Mean ([2]; PBMCs, Dose 40 (nM)): 98%; Percentage inhibition, Mean ([2]; PBMCs, Dose 200 (nM)): 98%; Percentage inhibition, Mean ([2]; PBMCs, Dose 1000 (nM)): 100%
2 | CC(C)(C)NC(=O)[C@@H]1CN(Cc2cccnc2)CCN1C[C@@H](O)C[C@@H](Cc1ccccc1)C(=O)N[C@H]1c2ccccc2C[C@H]1O [IDV, indinavir, reference compound] | reduced in a dose-dependent manner | 59 | 69 | 90 | 93 | 97 | 26.5 | 34.5 | 0 | 0 | 68 | 100 | 100 | 0 | 0 | 47 | 96 | 100 | effectively inhibited | 18 | EC50 ([1]; 336 h, Day 14): 22 nM; EC50 ([1]; 504 h, Day 21): 22 nM; ED70 ([1]; Day 21): 32 nM; ED90 ([1]; Day 21): 62 nM; EC50 ([2]; Human immunodeficiency virus 1, PBMC, PBMCs, HIV-1-LA1, 7th day, read-out: ED50 (the source's name)): 14 nM; ED90 ([2]; PBMCs, HIV-1-LA1, 7th day): 25.5 nM; Percentage inhibition, Mean ([2]; PBMCs, Dose 1.6 (nM)): 0%; Percentage inhibition, Mean ([2]; PBMCs, Dose 8 (nM)): 67%; Percentage inhibition, Mean ([2]; PBMCs, Dose 40 (nM)): 92%; Percentage inhibition, Mean ([2]; PBMCs, Dose 200 (nM)): 100%; Percentage inhibition, Mean ([2]; PBMCs, Dose 1000 (nM)): 100%
